Measured values: US6998259B1, “Enzymatic treatment of whey proteins for the production of antihypertensive peptides and the resulting products” (Davisco Foods International, priority 1999, dated 2006)
Read-outs that look alike come from different tables or passages of the source. Blank lines part the entries; values can stand above or below the substance they belong to. No end group written: not given here.

Columns and labels:
ACE = ACE (Homo sapiens, UniProt P12821); conditions: cited from earlier work
Sequence of ACE (P12821 30-1306, species assumed): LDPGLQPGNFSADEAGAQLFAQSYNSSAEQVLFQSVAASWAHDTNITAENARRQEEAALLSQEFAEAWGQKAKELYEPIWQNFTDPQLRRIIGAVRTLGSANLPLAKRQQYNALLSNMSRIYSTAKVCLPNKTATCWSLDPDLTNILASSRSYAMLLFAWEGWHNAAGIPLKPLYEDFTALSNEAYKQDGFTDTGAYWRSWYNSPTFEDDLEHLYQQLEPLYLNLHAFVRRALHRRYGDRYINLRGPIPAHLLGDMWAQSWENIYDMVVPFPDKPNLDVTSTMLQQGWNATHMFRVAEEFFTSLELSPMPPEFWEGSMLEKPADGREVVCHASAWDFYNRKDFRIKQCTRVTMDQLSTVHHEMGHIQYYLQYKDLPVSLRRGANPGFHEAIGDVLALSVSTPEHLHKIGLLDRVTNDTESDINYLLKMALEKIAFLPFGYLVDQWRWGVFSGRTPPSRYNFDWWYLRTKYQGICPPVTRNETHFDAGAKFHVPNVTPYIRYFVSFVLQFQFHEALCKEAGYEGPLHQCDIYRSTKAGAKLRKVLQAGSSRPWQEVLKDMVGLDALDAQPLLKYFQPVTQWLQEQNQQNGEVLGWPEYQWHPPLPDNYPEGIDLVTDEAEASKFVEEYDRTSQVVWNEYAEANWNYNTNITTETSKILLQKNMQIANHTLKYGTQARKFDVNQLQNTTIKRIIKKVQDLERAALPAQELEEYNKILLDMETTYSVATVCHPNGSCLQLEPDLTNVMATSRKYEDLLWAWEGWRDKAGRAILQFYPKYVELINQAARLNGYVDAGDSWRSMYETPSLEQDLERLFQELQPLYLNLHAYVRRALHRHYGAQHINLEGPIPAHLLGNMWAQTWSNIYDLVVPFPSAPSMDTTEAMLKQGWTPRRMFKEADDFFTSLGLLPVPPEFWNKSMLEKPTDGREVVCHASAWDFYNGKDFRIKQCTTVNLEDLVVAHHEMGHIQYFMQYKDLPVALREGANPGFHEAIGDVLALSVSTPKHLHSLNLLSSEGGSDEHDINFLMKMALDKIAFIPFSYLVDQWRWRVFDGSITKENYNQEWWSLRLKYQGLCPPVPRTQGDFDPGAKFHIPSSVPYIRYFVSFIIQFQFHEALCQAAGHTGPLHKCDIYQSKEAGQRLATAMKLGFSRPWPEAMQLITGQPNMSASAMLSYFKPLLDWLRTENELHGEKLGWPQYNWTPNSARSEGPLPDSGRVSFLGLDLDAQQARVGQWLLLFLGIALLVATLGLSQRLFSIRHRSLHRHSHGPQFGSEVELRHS

[1] = target: T1, Angiotensin Converting Enzyme (from rabbit lung) (Oryctolagus cuniculus, UniProt P12822); experiment: ACE-inhibitory activity, in vitro spectrophotometric assay (Cushman and Cheung, HHL substrate); assay type: biochemical
T1 construct: Angiotensin Converting Enzyme (from rabbit lung); purchased Sigma Chemical Co. (St. Louis, USA); host or cells: rabbit lung tissue
T1 sequence (P12822 34-1310): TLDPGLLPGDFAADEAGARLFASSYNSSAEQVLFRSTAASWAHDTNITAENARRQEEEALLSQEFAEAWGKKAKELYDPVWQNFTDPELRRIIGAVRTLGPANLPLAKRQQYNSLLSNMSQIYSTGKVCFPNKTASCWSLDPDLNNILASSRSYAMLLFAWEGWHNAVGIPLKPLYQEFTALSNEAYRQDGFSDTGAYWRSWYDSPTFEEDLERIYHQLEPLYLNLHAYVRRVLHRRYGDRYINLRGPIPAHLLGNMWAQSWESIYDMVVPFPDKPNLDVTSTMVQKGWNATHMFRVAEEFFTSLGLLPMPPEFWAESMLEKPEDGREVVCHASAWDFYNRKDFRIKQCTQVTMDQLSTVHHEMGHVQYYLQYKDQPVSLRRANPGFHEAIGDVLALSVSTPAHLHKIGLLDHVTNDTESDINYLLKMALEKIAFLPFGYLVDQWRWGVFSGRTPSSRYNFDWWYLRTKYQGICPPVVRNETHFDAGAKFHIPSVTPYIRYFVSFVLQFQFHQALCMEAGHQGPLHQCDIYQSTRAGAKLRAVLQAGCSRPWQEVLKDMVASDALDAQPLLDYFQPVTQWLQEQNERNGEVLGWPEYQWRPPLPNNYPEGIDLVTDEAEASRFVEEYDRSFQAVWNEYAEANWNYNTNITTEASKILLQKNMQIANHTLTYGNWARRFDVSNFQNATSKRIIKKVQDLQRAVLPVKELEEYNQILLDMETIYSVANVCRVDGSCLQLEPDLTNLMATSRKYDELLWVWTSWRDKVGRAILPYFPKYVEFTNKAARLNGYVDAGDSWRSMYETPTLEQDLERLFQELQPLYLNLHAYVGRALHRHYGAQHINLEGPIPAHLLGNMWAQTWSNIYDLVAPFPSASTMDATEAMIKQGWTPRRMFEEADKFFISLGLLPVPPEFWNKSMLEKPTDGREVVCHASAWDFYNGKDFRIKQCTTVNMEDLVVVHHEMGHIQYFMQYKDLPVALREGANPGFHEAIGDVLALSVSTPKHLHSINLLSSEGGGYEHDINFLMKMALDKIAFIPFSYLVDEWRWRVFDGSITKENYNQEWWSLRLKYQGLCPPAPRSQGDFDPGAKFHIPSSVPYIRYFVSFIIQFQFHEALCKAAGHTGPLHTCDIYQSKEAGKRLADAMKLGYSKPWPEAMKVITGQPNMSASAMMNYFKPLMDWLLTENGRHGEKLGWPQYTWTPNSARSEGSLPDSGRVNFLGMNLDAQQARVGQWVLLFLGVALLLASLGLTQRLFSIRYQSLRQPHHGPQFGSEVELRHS
From the text: Whey protein hydrolysate WPH 917 (84.5% protein w/w) was obtained from New Zealand Milk Product Inc. (Santa Rosa, USA). Whey protein hydrolysate LE80GF (80.0% w/w) was obtained from DMV International (New-York, USA). Whey protein isolate (BiPRO™) and β-lactoglobulin-rich product were obtained from Davisco Foods International (Le Sueur, Minn., USA). Purified peptidic sequence Ala-Leu-Pro-Met-His-Ile-Arg modelling the peptide f-142–148 from β-1g was chemically-synthetized by the Service de séquence de peptides de l'Est du Québec (Ste-Foy, Qc, Canada). HEPES Sodium salt, Hippuryl-L-Histidyl-L-Leucine, and Angiotensin Converting Enzyme (from rabbit lung) were purchased from Sigma Chemical Co. (St. Louis, USA). All other products used were analytical grade.
The ACE-inhibitory activity was measured in vitro by a spectrophotometric assay according to the method of Cushman and Cheung. (Cushman, D. N., Cheung, H. S. 1971 Spectrophotometric assay and properties of the angiotensin converting enzyme of rabbit lung. Biochemical Pharmacology, 20: 1637–1648.) According to this method, hippuric acid is liberated from hippuryl-L-histidyl-L-leucine (HHL) by the enzymatic reaction of ACE. After extraction by ethyl acetate and removal of ethyl acetate by heat evaporation, hippuric acid is dissolved in deionized water.
Inhibitory activity was calculated according to the following equation: Inhibitory activity (%)=[(Acontrol−Asample)/(Acontrol−Ablank)]×[…] 1 where A represents absorbance. A plot of the inhibitory activity (%) versus log10 of sample concentration (mg powder ml^−1) was generated using 6 different concentrations of samples for BIPRO™, AS-601 (BiPRO™β-1g), commercial hydrolysates (WPH 917, LE80GF) and of synthetic peptide (f142–148) from β-1g. Each concentration was tested in triplicate and the mean value was plotted in the curves. The IC50 value (expressed in terms of mg powder ml^−1, defined as the concentration of inhibitor which gives 50% inhibition of ACE activity, was calculated using the linear regression equations of the curves.

[2] = test system: spontaneously hypertensive rats; conditions: among nine identified peptide sequences; cited from earlier work
[3] = inhibitory activity (%) versus sample concentration (mg powder ml^−1)

Slope m of linear regression (y=m lnX+b) of the ACE-inhibitory activity curve [1, 3]: 10.35
Y-intercept b of linear regression (y=m lnX+b) of the ACE-inhibitory activity curve [1, 3]: 84.4
IC50 ([1]; rabbit lung ACE, HHL substrate, 37° C. for 20 min, 6 concentrations in triplicate, calculated from linear regression, read-out: IC50 (concentration of inhibitor which gives 50% inhibition of ACE activity) (converted)): 47.8 µM
Substance: ALPMHIR [β-1 g f142–148, Ala-Leu-Pro-Met-His-Ile-Arg]
IC50 (ACE; Mullally et al. 1997, read-out: IC50 (ACE inhibition)): 42.6 µM

Substance: peptide f23–34 from xsl casein: peptide f23–34 from casein (bovine, variant B), from tryptic casein hydrolysate (FFVAPFPEVFGK; Alpha-S1-casein; UniProt P02662 38-49, looked up, fragment)
IC50 (ACE; Maruyama and Suzuki, tryptic casein hydrolysate peptide, read-out: IC50 (concentration needed to inhibit 50% ACE activity)): 77 µM

Substance: β-lactoglobulin (f78–80): peptide fragment 78–80 of β-lactoglobulin from proteinase K digestion of cheese whey protein (Abubakar et al.) (IPA; UniProt P02754 94-96, looked up, fragment)
antihypertensive activity [2]: strongest antihypertensive activity
